This note sets out measurements from patent US20240082296A1, “TREATMENT OF MUSCLE ATROPHY USING DEXTRAN SULFATE” (TX MEDIC AB, priority 2020, published 2024).

This experiment relates to human patients suffering from ALS. The experiment in a line: ALSAQ-40 ADL and PM sub-scores in ALS patients (Example 1). It is filed as in vivo. On the procedure: Dextran sulfate (Tikomed AB, Viken, Sweden, WO 2016/076780) was administered at 2 mg/kg by […] subcutaneous injection once a week for ten weeks to 8 human patients suffering from ALS.
ALSAQ-40 was assessed pre-treatment and weekly thereafter for the 10 treatment weeks and for the visits at the follow-up period.
The ALSAQ-40 sub-scores entitled ‘Activities of Daily Living/Independence’ (ADL) and ‘Physical Mobility’ (PM) reflect the patients' view of their level of physical activity and independence. A falling score reflects improved physical activity.

Consider dextran sulfate, for which, under “after 10 weeks of treatment”, the “decline of ALSAQ-40 ADL sub-score” value worked out at 18.6% and the “decline of ALSAQ-40 PM sub-score” value was 16%. Besides, the “ALSAQ-40 PM sub-score” value (after 10 weeks, pre-treatment 27.2±22.2) worked out at 22.7±20.2. The “ALSAQ-40 ADL sub-score” value (after 10 weeks, pre-treatment 58.9±21.4, p<0.05, falling score = improved) is 44.4±24.7.
